Measured values taken from patent US20060029544A1, “Receptor-binding cyclic peptides and methods of use” (The Regents of the University of California Office of …, priority 2004, published 2006).
Several values for one entry are separate records, joined by “and”; a condition that tells them apart may be missing. Equal values may be shown once.

Columns and labels:
VUP melanoma cell line [1] = test: Adhesion assay: [51Cr]-VUP cells to laminin; assay type: cell-based
Experimental: (§1) RGD peptides were plated at a maximum concentration of 200 μM and a minimum concentration of 2 nM. For each RGD peptide sequence, linear peptides (A), cyclic peptides (B), and 4-[^19F]-fluorobenzoyl cyclic peptides (C) were assayed. Each RGD peptide concentration was performed in quadruplicate and each experiment was repeated twice.
(§2) Plastic 96-well plates (Falcon 3912; Becton Dickinson) were coated with 50 μl substrate (10 μg/ml laminin or 5 μg/ml vitronectin). The plates were incubated at 37° C. in an 8% CO2 atmosphere for 1 hour. Unbound protein was flicked off and the plates were washed with phosphate buffered saline (PBS) and blocked with bovine serum albumin (0.1% w/v BSA)/PBS/0.1% sodium azide) for 1 hour. The plates were then washed with PBS, placed on a bed of ice and 25 μl of peptide was added to the wells.
(§3) Sodium [^51Cr] chromate was purchased from Amersham International, UK. The solution was made isotonic by the addition of 110 μl 10× Hanks buffered salt solution. 100 μl of this solution (3.7 MBq) was added to 5-10×10^6 cells in 500 μl of serum-containing growth medium. The suspension was incubated at 37° C. for 45 minutes with regular agitation to resuspend the cells. The cells were then washed and spun 3 times with serum-free E4 medium to remove any free [^51Cr]chromium. A trypan blue viability count was performed and the cells were diluted to the necessary volume in serum-free E4 medium (4×10^5 cells/ml).
(§4) 25 μl (about 10,000 cells) were added to each quadruplicate well and the plates incubated at 37° C. in an 8% CO2 atmosphere for 1 hour. Unbound cells were flicked off and the plates were washed twice with PBS/BSA containing 1 mM CaCl2 and 0.5 mM MgCl2. The plates were dabbed dry and cut into individual wells. The radioactivity associated with each well was determined in a gamma counter (1261 Multigamma; Wallac, Sweden). Quadruplicate 25 μl samples of labeled cells were counted as 100% input values. To determine non-specific binding, the ability of cells to bind BSA-coated wells was also assessed. […]
(§5) The results were calculated as follows: [formula] […]

A375M melanoma cell line [2] = test: Adhesion assay: [51Cr]-A375M cells to laminin; assay type: cell-based, human
Experimental: as §1, §2, §3
25 μl (about 10,000 cells) were added to each quadruplicate well and the plates incubated at 37° C. in an 8% CO2 atmosphere for 1 hour. Unbound cells were flicked off and the plates were washed twice with PBS/BSA containing 1 mM CaCl2 and 0.5 mM MgCl2. The plates were dabbed dry and cut into individual wells. The radioactivity associated with each well was determined in a gamma counter (1261 Multigamma; Wallac, Sweden). Quadruplicate 25 μl samples of labeled cells were counted as 100% input values. To determine non-specific binding, the ability of cells to bind BSA-coated wells was also assessed. Data for these wells are referred to as background.
The results were calculated as follows: [formula] [formula] NMR Spectroscopy of RGD Peptides
The A375M and VUP melanoma cell lines were used with vitronectin and laminin as substrates. Peptides were titrated in 10-fold dilutions from 200 μM to 2 nM. All data were normalized to the absence of peptide, which corresponded to 100% adhesion. All titrations were performed in quadruplicate and each experiment was repeated at least twice.

αvβ5 integrin = target: T1, αvβ5 integrin (Homo sapiens, UniProt P06756+P18084); test: ELISA: biotinylated vitronectin binding to captured soluble αvβ5-mFc in the presence of RGD peptides
T1 construct: chimeras comprising the extracellular domain of αvβ3, αvβ5, α5β1, and αIIbβ3 linked to the Fc domain of either mouse IgG; purchased Celltech plc (supplied, no catalogue number); host or cells: unpurified hybridoma / tissue culture supernatant from secreting cells
T1 sequence (P06756 31-992 limits assumed): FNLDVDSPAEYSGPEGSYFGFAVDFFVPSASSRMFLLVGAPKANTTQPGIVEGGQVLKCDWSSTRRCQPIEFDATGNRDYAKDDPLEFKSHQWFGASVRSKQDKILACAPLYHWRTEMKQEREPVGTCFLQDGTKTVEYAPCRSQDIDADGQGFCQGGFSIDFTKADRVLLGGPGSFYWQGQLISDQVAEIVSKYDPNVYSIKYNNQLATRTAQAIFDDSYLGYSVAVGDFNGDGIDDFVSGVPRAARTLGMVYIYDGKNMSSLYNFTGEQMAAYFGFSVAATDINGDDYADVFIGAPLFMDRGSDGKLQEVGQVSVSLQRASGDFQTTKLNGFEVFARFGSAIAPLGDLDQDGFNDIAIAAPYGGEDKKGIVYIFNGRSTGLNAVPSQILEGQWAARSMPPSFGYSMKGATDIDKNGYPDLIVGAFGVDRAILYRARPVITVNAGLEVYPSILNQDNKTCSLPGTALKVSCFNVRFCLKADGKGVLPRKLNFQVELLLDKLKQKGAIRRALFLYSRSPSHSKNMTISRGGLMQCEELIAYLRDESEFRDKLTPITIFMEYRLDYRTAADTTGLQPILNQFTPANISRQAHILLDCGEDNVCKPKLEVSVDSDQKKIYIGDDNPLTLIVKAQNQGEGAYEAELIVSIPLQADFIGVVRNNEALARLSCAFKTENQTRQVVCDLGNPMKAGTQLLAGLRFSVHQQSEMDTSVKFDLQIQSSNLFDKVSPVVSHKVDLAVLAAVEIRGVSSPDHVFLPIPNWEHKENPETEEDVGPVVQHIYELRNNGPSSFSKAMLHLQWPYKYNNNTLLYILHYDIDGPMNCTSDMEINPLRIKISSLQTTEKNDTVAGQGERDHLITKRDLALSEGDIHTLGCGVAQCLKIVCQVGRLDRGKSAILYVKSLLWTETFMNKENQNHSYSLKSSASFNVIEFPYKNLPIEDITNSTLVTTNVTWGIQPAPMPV
T1 sequence (P18084 24-719 limits assumed): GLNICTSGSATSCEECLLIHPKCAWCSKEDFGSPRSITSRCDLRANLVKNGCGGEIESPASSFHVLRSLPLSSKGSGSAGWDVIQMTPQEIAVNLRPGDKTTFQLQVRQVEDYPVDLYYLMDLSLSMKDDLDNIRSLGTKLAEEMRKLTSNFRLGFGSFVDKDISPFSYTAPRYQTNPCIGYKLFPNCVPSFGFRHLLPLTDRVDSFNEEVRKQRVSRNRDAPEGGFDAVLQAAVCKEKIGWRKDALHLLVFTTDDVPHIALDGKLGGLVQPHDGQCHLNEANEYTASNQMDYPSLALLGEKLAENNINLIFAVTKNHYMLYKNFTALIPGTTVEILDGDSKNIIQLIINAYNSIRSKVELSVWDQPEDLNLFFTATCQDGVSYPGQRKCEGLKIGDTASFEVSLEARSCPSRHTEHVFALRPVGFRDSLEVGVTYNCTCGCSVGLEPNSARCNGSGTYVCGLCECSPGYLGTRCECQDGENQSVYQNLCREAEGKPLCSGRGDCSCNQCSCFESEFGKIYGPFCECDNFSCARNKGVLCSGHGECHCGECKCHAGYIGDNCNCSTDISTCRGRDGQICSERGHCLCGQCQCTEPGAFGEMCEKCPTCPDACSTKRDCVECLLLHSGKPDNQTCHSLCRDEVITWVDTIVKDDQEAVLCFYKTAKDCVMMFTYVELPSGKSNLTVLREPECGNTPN
Description: (§6) Four different soluble integrins were supplied by Celltech plc. Soluble forms of αvβ3, αvβ5, α5β1, and αIIbβ3 integrin were generated by constructing chimeras comprising the extracellular domain of αvβ3, αvβ5, α5β1, and αIIbβ3 linked to the Fc domain of either mouse IgG (αvβ3-mFc, αvβ5-mFc, and αIIbβ3-mFc) or human IgG (α5β1-hFc) as described by Stephens et al., Cell Adhes. Commun., 7:377-390 (2000) and Coe et al., J. Biol. Chem., 276:35854-35866 (2001). Since the four soluble integrin chimeras were supplied either as purified proteins (αvβ3-mFc and α5β1-hFc) or as unpurified hybridoma supernatants (αIIbβ3-mFc and αvβ5-mFc), it was necessary to use two types of ELISAs. […] In one type of ELISA (FIGS. 2A and 2B), the immobilized component is a 50 kDa fragment of fibronectin. In the second type of ELISA (FIGS. 2C and 2D), the immobilized component is a goat anti-mFc antibody that is used to capture chimeric proteins so that the RGD binding site of the integrin is maximally exposed. Each three-sided box in FIG. 2 represents a single well of a 96-well plate, and the components are listed in the sequence of their addition to the assay. The immobilized component at the bottom of the well is bound to the well by electrostatic interactions.
To analyze the affinity and selectively of RGD peptides for αIIbβ3 and αvβ5, 96-well ELISA plates were coated with anti-murine Fc antibody at 5 μg/ml in PBS, 100 μl per well and left overnight at 4° C. The plates were washed with PBS using a Denley Wellwash 4 Mk 2. Washing was repeated twice with a 400 μl wash per well. 200 μl/well of blocking buffer was then added for 1 hour followed by a repeat washing with PBS. 100 μl of tissue culture supernatant from cells secreting soluble αIIbβ3-mFc or αvβ5-mFc, diluted 1:2 in conjugate buffer, was added to each well. Plates were incubated with shaking for 1 hour followed by two washes with PBS. 100 μl of an RGD peptide (at concentrations of 200, 20, and 2 μM), followed by either 100 μl of biotinylated fibrinogen (at 1 μg/ml in conjugate buffer) or 100 μl of biotinylated vitronectin (at 2 μg/ml in conjugate buffer) were added to each well and incubated for 2 hours with shaking. After incubation, the plates were washed with PBS as described above. 100 μl of neutravidin-peroxidase was added to each well and the plates were incubated for 30 minutes with shaking, followed by two washes with PBS. 100 μl of TMB substrate was added to each well and the plates were shaken during color development. Plates were read using a plate spectrophotometer at 630 nm.
(§7) Two negative and two positive controls were used in both types of ELISAs. For example, the negative controls were wells that contained 50 μl of an active control peptide, integrin, and biotinylated ligand or 50 μl of the active control peptide and 50 μl of buffer. These negative control wells typically develop little to no color. […] These wells typically develop the maximum amount of color.
(§8) FIGS. 3-6 illustrate the percent binding of the vitronectin, fibronectin, or fibrinogen ligand to αvβ5, α5β1, αIIbβ3, or αvβ3 integrin in the presence of RGD peptides (i.e., linear (A), cyclic (B), or 4-[^19F]-fluorobenzoyl cyclic (C)) at different concentrations, with 100% maximum signal being the signal obtained in the absence of the peptide.

α5β1 integrin = target: T2, α5β1 integrin (Homo sapiens, UniProt P05556+P08648); test: ELISA: soluble α5β1-hFc binding to immobilized 50 kDa fibronectin fragment in the presence of RGD peptides
T2 construct: chimeras comprising the extracellular domain of αvβ3, αvβ5, α5β1, and αIIbβ3 linked to the Fc domain of either mouse IgG; purchased Celltech plc (supplied, no catalogue number)
T2 sequence (P08648 42-995 limits assumed): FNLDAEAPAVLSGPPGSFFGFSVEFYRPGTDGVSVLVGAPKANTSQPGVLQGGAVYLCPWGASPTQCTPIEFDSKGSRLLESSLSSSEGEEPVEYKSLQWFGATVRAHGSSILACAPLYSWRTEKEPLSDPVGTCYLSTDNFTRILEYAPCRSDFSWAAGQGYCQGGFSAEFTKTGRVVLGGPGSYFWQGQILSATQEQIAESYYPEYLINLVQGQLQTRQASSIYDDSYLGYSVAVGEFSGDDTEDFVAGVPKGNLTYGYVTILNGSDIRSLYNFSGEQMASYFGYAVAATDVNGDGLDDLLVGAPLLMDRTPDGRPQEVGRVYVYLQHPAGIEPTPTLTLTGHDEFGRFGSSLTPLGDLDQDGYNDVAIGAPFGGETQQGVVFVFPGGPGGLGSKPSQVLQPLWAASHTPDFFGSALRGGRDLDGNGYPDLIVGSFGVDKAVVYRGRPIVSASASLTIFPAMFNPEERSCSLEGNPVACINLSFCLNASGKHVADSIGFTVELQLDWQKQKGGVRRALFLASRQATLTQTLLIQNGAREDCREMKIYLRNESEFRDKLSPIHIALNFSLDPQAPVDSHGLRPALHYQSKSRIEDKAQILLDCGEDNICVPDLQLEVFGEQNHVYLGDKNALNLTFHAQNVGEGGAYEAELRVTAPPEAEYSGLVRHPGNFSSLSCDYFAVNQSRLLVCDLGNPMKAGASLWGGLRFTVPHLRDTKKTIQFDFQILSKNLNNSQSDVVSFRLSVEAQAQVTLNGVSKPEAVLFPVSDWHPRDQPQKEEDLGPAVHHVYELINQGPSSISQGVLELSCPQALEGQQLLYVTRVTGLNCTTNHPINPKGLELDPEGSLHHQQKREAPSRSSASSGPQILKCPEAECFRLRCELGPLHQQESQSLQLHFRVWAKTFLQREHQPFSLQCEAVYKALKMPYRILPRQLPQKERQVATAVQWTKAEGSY
T2 sequence (P05556 21-728 limits assumed): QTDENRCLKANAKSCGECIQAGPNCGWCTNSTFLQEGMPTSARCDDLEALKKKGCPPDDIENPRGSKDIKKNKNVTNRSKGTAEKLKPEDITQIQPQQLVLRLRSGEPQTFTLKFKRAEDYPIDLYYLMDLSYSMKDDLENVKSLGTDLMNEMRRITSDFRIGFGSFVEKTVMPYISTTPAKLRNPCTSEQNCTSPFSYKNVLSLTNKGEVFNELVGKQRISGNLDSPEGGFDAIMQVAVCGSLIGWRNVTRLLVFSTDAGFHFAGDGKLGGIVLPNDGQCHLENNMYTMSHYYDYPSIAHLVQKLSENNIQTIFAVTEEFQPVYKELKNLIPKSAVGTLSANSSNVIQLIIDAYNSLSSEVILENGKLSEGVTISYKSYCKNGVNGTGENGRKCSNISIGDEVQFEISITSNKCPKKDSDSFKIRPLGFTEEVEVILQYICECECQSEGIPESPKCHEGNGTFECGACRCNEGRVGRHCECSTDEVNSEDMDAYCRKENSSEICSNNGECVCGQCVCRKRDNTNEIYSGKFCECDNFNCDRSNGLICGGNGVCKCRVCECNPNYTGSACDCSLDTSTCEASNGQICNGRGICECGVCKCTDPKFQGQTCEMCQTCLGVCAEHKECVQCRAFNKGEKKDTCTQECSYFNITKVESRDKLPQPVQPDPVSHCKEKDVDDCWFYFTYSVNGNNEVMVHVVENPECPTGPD
Description: as §6
To analyze the affinity and selectively of RGD peptides for αvβ3 and α5β1, 96-well ELISA plates were coated with 100 μl of a 5 μg/ml of the 50 kDa fragment of fibronectin in PBS per well and left overnight at 4° C. The plates were washed with PBS using a Denley Wellwash 4 Mk 2. Washing was repeated twice with a 400 μl wash per well. 200 μ/well of blocking buffer (i.e., to prevent non-specific binding of proteins) was then added for 1 hour followed by a repeat washing with PBS. RGD peptides were then added at a maximum concentration of 200 μM and a preliminary screen was performed at three concentrations, 200,20, and 2 μM. 100 μl of an RGD peptide was added to each well and each assay was performed in triplicate. Purified soluble αvβ3-mFc or purified α5β1-hFc was diluted to 2 μg/ml and 15 ng/ml, respectively, in conjugate buffer and 100 μl was added to each well. The plates were incubated for 2 hours with shaking using a Luckham R100 Rotatest at approximately 150 rpm. After incubation, the plates were washed with PBS as previously described and a labeled antibody was added. For the αvβ3 assay, a horseradish peroxidase (HRP)-labeled F(ab′)2 fragment of goat anti-mouse IgG Fc was diluted 1:2000 in conjugate buffer and 100 μl was added to each well. For the α5β1 assay, an HRP-labeled F(ab′)2 fragment of goat anti-human IgG Fc was diluted 1:2000 in conjugate buffer and 100 μl was added to each well. Plates were incubated for 30 minutes with shaking followed by 2 washes with PBS. 100 μl of TMB substrate was added to each well and plates were shaken during a 10 minute color development. Plates were read using a plate spectrophotometer at 630 nm.
as §7, §8

αIIbβ3 integrin = target: T3, αIIbβ3 integrin (Homo sapiens, UniProt P05106+P08514); test: ELISA: biotinylated fibrinogen binding to captured soluble αIIbβ3-mFc in the presence of RGD peptides
T3 construct: chimeras comprising the extracellular domain of αvβ3, αvβ5, α5β1, and αIIbβ3 linked to the Fc domain of either mouse IgG; purchased Celltech plc (supplied, no catalogue number); host or cells: unpurified hybridoma / tissue culture supernatant from secreting cells
Description: as §6
The plates were washed with PBS using a Denley Wellwash 4 Mk 2. Washing was repeated twice with a 400 μl wash per well. 200 μl/well of blocking buffer was then added for 1 hour followed by a repeat washing with PBS. 100 μl of tissue culture supernatant from cells secreting soluble αIIbβ3-mFc or αvβ5-mFc, diluted 1:2 in conjugate buffer, was added to each well. […] After incubation, the plates were washed with PBS as described above. 100 μl of neutravidin-peroxidase was added to each well and the plates were incubated for 30 minutes with shaking, followed by two washes with PBS. 100 μl of TMB substrate was added to each well and the plates were shaken during color development. Plates were read using a plate spectrophotometer at 630 nm.
(§9) Two negative and two positive controls were used in both types of ELISAs.
as §8

αvβ3 integrin = target: T4, αvβ3 integrin (Homo sapiens, UniProt P05106+P06756); test: ELISA: soluble αvβ3-mFc binding to immobilized 50 kDa fibronectin fragment in the presence of RGD peptides
T4 construct: chimeras comprising the extracellular domain of αvβ3, αvβ5, α5β1, and αIIbβ3 linked to the Fc domain of either mouse IgG; purchased Celltech plc (supplied, no catalogue number)
T4 sequence (P06756 31-992 limits assumed): as the sequence (P06756 31-992 limits assumed) above
T4 sequence (P05106 27-718 limits assumed): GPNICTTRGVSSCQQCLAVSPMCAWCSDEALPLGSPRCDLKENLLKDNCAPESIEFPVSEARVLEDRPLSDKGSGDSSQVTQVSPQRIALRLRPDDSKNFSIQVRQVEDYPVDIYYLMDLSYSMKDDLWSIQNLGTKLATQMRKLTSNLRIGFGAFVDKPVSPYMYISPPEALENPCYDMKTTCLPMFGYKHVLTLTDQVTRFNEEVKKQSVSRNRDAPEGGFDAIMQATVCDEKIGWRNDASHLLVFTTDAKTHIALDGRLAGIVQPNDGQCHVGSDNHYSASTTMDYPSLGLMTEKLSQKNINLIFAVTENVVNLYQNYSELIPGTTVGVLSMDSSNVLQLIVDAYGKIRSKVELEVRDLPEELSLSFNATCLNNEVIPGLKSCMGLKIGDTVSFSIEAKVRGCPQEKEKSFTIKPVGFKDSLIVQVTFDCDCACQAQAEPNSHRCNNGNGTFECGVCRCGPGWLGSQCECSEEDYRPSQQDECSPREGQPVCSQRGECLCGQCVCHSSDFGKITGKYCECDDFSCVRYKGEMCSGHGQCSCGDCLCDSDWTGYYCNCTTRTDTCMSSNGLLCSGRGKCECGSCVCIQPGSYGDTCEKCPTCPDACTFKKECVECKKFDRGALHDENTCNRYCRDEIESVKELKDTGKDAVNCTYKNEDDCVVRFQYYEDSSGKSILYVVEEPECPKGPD
Description: as §6
The plates were washed with PBS using a Denley Wellwash 4 Mk 2. Washing was repeated twice with a 400 μl wash per well. […] Plates were read using a plate spectrophotometer at 630 nm.
as §9, §8

VUP melanoma cell line [3] = test: Adhesion assay: [51Cr]-VUP cells to vitronectin; assay type: cell-based; conditions: 20 μM peptide
Experimental: as §1, §2
(§10) Sodium [^51Cr] chromate was purchased from Amersham International, UK. […]
as §4, with “Unbound cells were flicked off and the plates were washed twice with PBS/BSA containing 1 mM CaCl2 and 0.5 mM MgCl2. The plates were dabbed dry and cut into individual wells.” left out
as §5

A375M melanoma cell line [4] = test: Adhesion assay: [51Cr]-A375M cells to vitronectin; assay type: cell-based, human; conditions: 20 μM peptide
Experimental: as §1, §2, §10
as §4, with “Unbound cells were flicked off and the plates were washed twice with PBS/BSA containing 1 mM CaCl2 and 0.5 mM MgCl2. The plates were dabbed dry and cut into individual wells.” left out
as §5

[5] = control peptide, concentration not given
[6] = preliminary screen 2, 20, 200 μM

GRGDSP [reference compound]
adhesion of [51Cr]-VUP cells to laminin, normalized to absence of peptide (100%) (VUP melanoma cell line [1]; [5]): 49.29%±2.74% and 43.05%±7.66% | adhesion of [51Cr]-A375M cells to laminin, normalized to absence of peptide (100%) (A375M melanoma cell line [2]; 200 μM peptide): 13.51%±1.25% | adhesion of [51Cr]-A375M cells to laminin, normalized to absence of peptide (100%) (A375M melanoma cell line [2]; [5]): 62.05%±1.88%

H-KPQVTRGDVFTEG-NH2 [A11, linear peptide, reference compound]
effect on the binding of vitronectin to αvβ5 (αvβ5 integrin; [6]): no effect | effect on the binding of fibronectin to α5β1 (α5β1 integrin; [6]): no effect | effect on the binding of fibrinogen to αIIbβ3 (αIIbβ3 integrin; 20 μM): significant effect | effect on fibronectin binding to αvβ3 (αvβ3 integrin; 2 μM): little effect | fibronectin binding to αvβ3, % of the maximum signal (αvβ3 integrin; 20 μM peptide): 58.7%

RGDY(OMe)K [A7]
effect on αvβ5 binding to vitronectin (αvβ5 integrin; 2 μM and 20 μM): little effect | effect on α5β1 binding to fibronectin (α5β1 integrin; 2 μM and 20 μM): little effect | adhesion of [51Cr]-VUP cells to vitronectin, normalized to absence of peptide (100%) (VUP melanoma cell line [3]): 78.65%±3.98% | adhesion of [51Cr]-A375M cells to vitronectin, normalized to absence of peptide (100%) (A375M melanoma cell line [4]): 106.99±1.66% | adhesion of [51Cr]-VUP cells to laminin, normalized to absence of peptide (100%) (VUP melanoma cell line [1]; highest concentration (200 μM)): 64.17%±1.31% | adhesion of [51Cr]-A375M cells to laminin, normalized to absence of peptide (100%) (A375M melanoma cell line [2]; 200 μM peptide): 75.08%±1.53%

RGDY(OMe)KE [C1]
selectivity for αIIbβ3 integrin (αIIbβ3 integrin): high selectivity for αIIbβ3 integrin | fibrinogen binding to αIIbβ3 (αIIbβ3 integrin; 2 nM peptide): 59% | effect on the binding of αIIbβ3 to fibrinogen (αIIbβ3 integrin; nanomolar concentrations): significant effect
